Data published in ChEMBL document CHEMBL1201862, “PubChem BioAssay data set” (2004).
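Grown in 96-well plates, cells were treated for 48 hours with each compound at five concentrations. Insufficient inhibition: endpoint recorded as highest concentration tested. GI50 marks 50% less growth.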 Calls of active or inactive are those of the source. Rule as the data show it: active = GI50 up to about 1.1 µM and inactive = higher.

What was measured:
Assay in all cases: growth of human tumour cells (NCI), 48 h
786-0 = test system: 786-0
A498 = test system: A498
A549 = test system: A549
ACHN = test system: ACHN
BT-549 = test system: BT-549
CAKI-1 = test system: CAKI-1
CCRF-CEM = test system: CCRF-CEM
COLO 205 = test system: COLO 205
DU-145 = test system: DU-145
HCC 2998 = test system: HCC 2998
HCT-116 = test system: HCT-116
HCT-15 = test system: HCT-15
HL-60 = test system: HL-60
HOP-92 = test system: HOP-92
K562 = test system: K562
LOX IMVI = test system: LOX IMVI
MDA-MB-231 = test system: MDA-MB-231
MDA-MB-435 = test system: MDA-MB-435
MDA-N = test system: MDA-N
NCI-H23 = test system: NCI-H23
NCI-H460 = test system: NCI-H460
OVCAR-4 = test system: OVCAR-4
RPMI-8226 = test system: RPMI-8226
RXF 393 = test system: RXF 393
SF-295 = test system: SF-295
SK-MEL-28 = test system: SK-MEL-28
SK-MEL-5 = test system: SK-MEL-5
SK-OV-3 = test system: SK-OV-3
SN12C = test system: SN12C
SNB-19 = test system: SNB-19
SR = test system: SR
SW-620 = test system: SW-620
T47D = test system: T47D
TK-10 = test system: TK-10
U-251 = test system: U-251
UACC-257 = test system: UACC-257
UACC-62 = test system: UACC-62
UO-31 = test system: UO-31
EKVX = test system: EKVX
HOP-62 = test system: HOP-62
HT-29 = test system: HT-29
IGROV-1 = test system: IGROV-1
M14 = test system: M14
MCF7 = test system: MCF7
MOLT-4 = test system: MOLT-4
NCI-H226 = test system: NCI-H226
NCI/ADR-RES = test system: NCI/ADR-RES
OVCAR-3 = test system: OVCAR-3
OVCAR-5 = test system: OVCAR-5
OVCAR-8 = test system: OVCAR-8
PC-3 = test system: PC-3
SF-539 = test system: SF-539
SK-MEL-2 = test system: SK-MEL-2
SNB-75 = test system: SNB-75
KM12 = test system: KM12

Measured: GI50

Nc1nc2c(c(=O)[nH]1)C(c1ccc(Cl)cc1)C=C(c1ccccc1)N2 (stereo unspecified)
inactive: 786-0 25.4 µM | A498 54.5 µM | A549 25.9 µM | ACHN 75.3 µM | BT-549 35.1 µM | CAKI-1 91.4 µM | CCRF-CEM 24.8 µM | COLO 205 19.1 µM | DU-145 29.4 µM | HCC 2998 15.3 µM | HCT-116 16.3 µM | HL-60 30.8 µM | HOP-92 20.4 µM | K562 20.6 µM | LOX IMVI 45.3 µM | MDA-MB-231 20.9 µM | MDA-MB-435 15 µM | MDA-N 18.6 µM | NCI-H23 24.4 µM | NCI-H460 20.4 µM | OVCAR-4 21.6 µM | RPMI-8226 18.4 µM | RXF 393 43.6 µM | SF-295 26.7 µM | SK-MEL-28 22.6 µM | SK-MEL-5 19.9 µM | SK-OV-3 23.8 µM | SN12C 19.9 µM | SNB-19 37.9 µM | SR 19.4 µM | SW-620 18.1 µM | T47D 21.8 µM | TK-10 51.6 µM | U-251 17.8 µM | UACC-257 54.8 µM | UACC-62 27.4 µM | UO-31 92.7 µM
34.7 µM: HCT-15

C#CCOCCCC(=O)O
inactive: 786-0 > 100 µM | A498 > 100 µM | A549 > 100 µM | ACHN > 100 µM | BT-549 > 100 µM | CAKI-1 > 100 µM | CCRF-CEM > 100 µM | COLO 205 > 100 µM | DU-145 > 100 µM | EKVX > 100 µM | HCT-116 > 100 µM | HL-60 > 100 µM | HOP-62 > 100 µM | HOP-92 > 100 µM | HT-29 > 100 µM | IGROV-1 > 100 µM | K562 > 100 µM | LOX IMVI > 100 µM | M14 > 100 µM | MCF7 > 100 µM | MDA-MB-231 > 100 µM | MDA-N > 100 µM | MOLT-4 > 100 µM | NCI-H226 > 100 µM | NCI-H23 > 100 µM | NCI-H460 > 100 µM | NCI/ADR-RES > 100 µM | OVCAR-3 > 100 µM | OVCAR-4 > 100 µM | OVCAR-5 > 100 µM | OVCAR-8 > 100 µM | PC-3 > 100 µM | RPMI-8226 > 100 µM | RXF 393 > 100 µM | SF-295 > 100 µM | SF-539 > 100 µM | SK-MEL-28 > 100 µM | SK-MEL-2 > 100 µM | SK-MEL-5 > 100 µM | SK-OV-3 > 100 µM | SN12C > 100 µM | SNB-19 > 100 µM | SNB-75 > 100 µM | SR > 100 µM | SW-620 > 100 µM | T47D > 100 µM | TK-10 > 100 µM | U-251 > 100 µM | UACC-257 > 100 µM | UACC-62 > 100 µM
> 100 µM: HCT-15

O=S(=O)(O)c1c(Cl)cc(O)c2ncccc12
> 100 µM: HCT-15
inactive: 786-0 > 100 µM | A498 > 100 µM | A549 > 100 µM | ACHN > 100 µM | BT-549 > 100 µM | CAKI-1 > 100 µM | CCRF-CEM > 100 µM | COLO 205 > 100 µM | DU-145 > 100 µM | EKVX > 100 µM | HCC 2998 > 100 µM | HCT-116 > 100 µM | HOP-62 > 100 µM | HOP-92 > 100 µM | HT-29 > 100 µM | IGROV-1 > 100 µM | K562 > 100 µM | KM12 > 100 µM | LOX IMVI > 100 µM | M14 > 100 µM | MCF7 > 100 µM | MDA-MB-231 > 100 µM | MDA-MB-435 > 100 µM | MDA-N > 100 µM | MOLT-4 > 100 µM | NCI-H226 > 100 µM | NCI-H23 > 100 µM | NCI-H460 > 100 µM | NCI/ADR-RES > 100 µM | OVCAR-3 > 100 µM | OVCAR-4 > 100 µM | OVCAR-5 > 100 µM | OVCAR-8 > 100 µM | PC-3 > 100 µM | RPMI-8226 > 100 µM | RXF 393 > 100 µM | SF-295 > 100 µM | SF-539 > 100 µM | SK-MEL-28 > 100 µM | SK-MEL-2 > 100 µM | SK-MEL-5 > 100 µM | SN12C > 100 µM | SNB-19 > 100 µM | SNB-75 > 100 µM | SR > 100 µM | SW-620 > 100 µM | T47D > 100 µM | U-251 > 100 µM | UACC-257 > 100 µM | UACC-62 > 100 µM | UO-31 > 100 µM
